Measurements from patent publication CN102775413A, “氨基取代吴茱萸次碱类似物及其合成方法与在制备抗肥胖症药物中的应用” (Sun Yat Sen University, priority 2012, dated 2012).
“Also recorded” adds a separate entry of the source.

Key:
[1] = system: 3T3-L1 mouse adipocytes (3T3-L1小鼠脂肪细胞); test: Triglyceride content of differentiating 3T3-L1 adipocytes (triglyceride assay kit); type: cell-based
[2] = system: FAO rat hepatocytes (FAO大鼠肝细胞); test: High-fructose-induced fat accumulation in FAO hepatocytes (triglyceride kit and BCA protein kit); type: cell-based; conditions: 24 h, Fig. 5
[3] = Precipitation from culture medium, microscopy, 20 μM (Example 11, Fig. 6); type: physicochemical; conditions: 24 h incubation with cells
[4] = Precipitation from culture medium, microscopy, 15 μM (Example 10, Fig. 4); type: physicochemical; conditions: incubated with 3T3-L1 cells 6 days
[5] = system: cells (细胞); test: Reduction of fat accumulation (general statement, test not specified); type: cell-based; conditions: inventors' finding

O=c1c2ccccc2nc2n1CCc1c-2[nH]c2ccccc12 [R1, 吴茱萸次碱]
effect on triglyceride content of 3T3-L1 cells vs DMSO control (DM) ([1]; 1 μM, Fig. 1, significance vs DM): 显著性地降低
inhibition at 3 µM ([1]; Mus musculus, 144 h, 3T3-L1 cells, 3 μM, Day 6, vs DMSO control, mean of three independent experiments, Fig. 2, read-out: reduction of triglyceride content): 34%
concentration dependence of reduction of fat accumulation in 3T3-L1 cells ([1]; R1 0, 0.3, 1, 3, 10, 15 μM, R17 and R18 0, 0.03, 0.1, 0.3, 1, 3 μM, Fig. 2): 浓度依赖性地减少
inhibition at 10 µM ([2]; Hepatocyte, FAO rat hepatocytes, 10 μM, 25 mM fructose, triglyceride per mg protein vs control, mean of three independent experiments, read-out: reduction of high-fructose-induced fat accumulation): 72%
concentration dependence of inhibition of high-fructose-induced fat accumulation in FAO rat hepatocytes ([2]; R1 0, 0.3, 10, 20 μM, R17 0, 0.1, 0.3, 10 μM): 浓度依赖性地抑制; also recorded: 浓度依赖性地减少
precipitation from culture medium [3]: 会从培养基中析出; also recorded: 从培养基中析出来
precipitation from culture medium [4]: 从培养基中析出来
reduction of fat accumulation in cells [5]: 能减少细胞的脂肪蓄积
